Reference: ChEMBL document CHEMBL4808216, “Gut-Restricted Selective Cyclooxygenase-2 (COX-2) Inhibitors for Chemoprevention of Colorectal Cancer” (J Med Chem, 2021)
Converted amounts (≈) assume the structure as drawn. The source made the active and inactive calls. No cut-off for these calls is given here.

Assays:
[1] = target: T1, Prostaglandin G/H synthase 2 (Homo sapiens, UniProt P35354); assay: Inhibition of COX2 (unknown origin) expressed in HEK293 TRex cells assessed as reduction in PGE2 production using arachidonic acid as substrate preincubated for 60 mins followed by substrate addition for 1 hr in presence of 10% FBS by RapidFire High-Throughput Mass Spectrometry; type: cell-based, HEK293-T-REx
T1 sequence (P35354 whole entry): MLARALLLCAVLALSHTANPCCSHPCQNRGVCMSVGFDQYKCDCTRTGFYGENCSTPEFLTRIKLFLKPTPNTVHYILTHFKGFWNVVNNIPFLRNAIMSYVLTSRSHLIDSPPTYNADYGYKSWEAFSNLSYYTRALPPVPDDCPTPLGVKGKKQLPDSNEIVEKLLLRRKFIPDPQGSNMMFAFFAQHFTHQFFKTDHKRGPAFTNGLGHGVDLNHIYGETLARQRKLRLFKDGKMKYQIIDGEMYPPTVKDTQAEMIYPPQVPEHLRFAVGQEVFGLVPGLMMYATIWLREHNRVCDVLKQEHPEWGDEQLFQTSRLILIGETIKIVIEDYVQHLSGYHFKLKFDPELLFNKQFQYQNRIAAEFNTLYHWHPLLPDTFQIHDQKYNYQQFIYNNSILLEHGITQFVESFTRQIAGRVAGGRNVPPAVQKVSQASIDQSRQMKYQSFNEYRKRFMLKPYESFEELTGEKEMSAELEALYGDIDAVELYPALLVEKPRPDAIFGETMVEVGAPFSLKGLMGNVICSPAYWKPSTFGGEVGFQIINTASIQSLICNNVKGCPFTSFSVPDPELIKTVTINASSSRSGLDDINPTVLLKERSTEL

[2] = target: T2, Prostaglandin G/H synthase 1 (Homo sapiens, UniProt P23219); assay: Inhibition of human recombinant COX-1 assessed as reduction in peroxidase activity using arachidonic acid as substrate preincubated for 60 mins followed by substrate addition for 2 secs by ADPH based fluorometric analysis; type: ADME
T2 sequence (P23219 whole entry): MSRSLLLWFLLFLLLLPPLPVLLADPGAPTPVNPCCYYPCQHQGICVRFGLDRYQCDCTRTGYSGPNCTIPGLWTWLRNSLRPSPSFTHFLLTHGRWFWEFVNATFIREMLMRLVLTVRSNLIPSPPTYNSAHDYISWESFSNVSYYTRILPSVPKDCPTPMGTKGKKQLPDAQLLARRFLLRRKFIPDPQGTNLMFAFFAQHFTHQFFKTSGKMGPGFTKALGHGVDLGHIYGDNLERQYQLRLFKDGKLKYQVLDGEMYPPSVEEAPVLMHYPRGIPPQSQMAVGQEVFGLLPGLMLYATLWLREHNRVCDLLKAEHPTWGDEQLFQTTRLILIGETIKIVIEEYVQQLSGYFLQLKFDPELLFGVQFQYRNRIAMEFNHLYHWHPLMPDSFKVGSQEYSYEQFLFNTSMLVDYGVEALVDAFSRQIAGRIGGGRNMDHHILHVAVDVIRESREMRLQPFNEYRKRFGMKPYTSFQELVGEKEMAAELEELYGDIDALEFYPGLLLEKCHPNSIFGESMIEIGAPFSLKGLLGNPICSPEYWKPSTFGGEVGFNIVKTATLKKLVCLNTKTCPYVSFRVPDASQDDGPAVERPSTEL

[3] = target: T1, Prostaglandin G/H synthase 2; assay: Inhibition of human recombinant COX-2 assessed as reduction in peroxidase activity using arachidonic acid as substrate preincubated for 60 mins followed by substrate addition for 2 secs by ADPH based fluorometric analysis
[4] = target: T2, Prostaglandin G/H synthase 1; assay: Inhibition of COX1 (unknown origin) expressed in HEK293 TRex cells assessed as reduction in PGE2 production using arachidonic acid as substrate preincubated for 60 mins followed by substrate addition for 1 hr in presence of 10% FBS by RapidFire High-Throughput Mass Spectrometry; type: ADME, cell-based, HEK293-T-REx
[5] = Drug concentration in C57BL/6J mouse colon at 10 mg/kg, po administered as cassette dose measured at 4 hrs by LC/MS/MS analysis; type: ADME, organism-based; details: read-out: Ct
[6] = Drug concentration in C57BL/6J mouse plasma at 10 mg/kg, po administered as cassette dose measured at 4 hrs by LC/MS/MS analysis; type: ADME, organism-based
[7] = Ratio of drug concentration in C57BL/6J mouse colon to plasma at 10 mg/kg, po measured after 4 hr by liquid chromatographic triple-quadrupole mass spectrometric method; type: ADME, organism-based; details: for Ratio: other tissue, 10 mg/kg, 4 h
[8] = target: T1, Prostaglandin G/H synthase 2; assay: Inhibition of human recombinant COX-2 using arachidonic acid as substrate preincubated for 60 mins followed by substrate addition for 2 secs by ADPH based fluorometric analysis
[9] = target: T1, Prostaglandin G/H synthase 2; assay: Inhibition of COX2 in human whole blood assessed as reduction in LPS stimulated PGE2 production incubated for 1 hr by ELISA; type: tissue-based
[10] = target: T2, Prostaglandin G/H synthase 1; assay: Inhibition of COX1 in human whole blood assessed as reduction in calcium ionophore-stimulated TXB2 production incubated for 1 hr by ELISA; type: tissue-based
[11] = Protein binding in human plasma assessed as unbound fraction; type: ADME, cell-free
[12] = Protein binding in human colon assessed as unbound fraction; type: ADME, tissue-based
[13] = Equilibrium solubility of compound in FASSIF at pH 6.5; type: physicochemical
[14] = Drug concentration in C57BL/6J mouse portal vein plasma at 10 mg/kg, po administered as cassette dose measured at 4 hrs by LC/MS/MS analysis; type: ADME, organism-based
[15] = system: Mus musculus; assay: Chemo-protective activity in C57BL/6J mouse model of spontaneous GI-tract tumor Apc-min assessed as 18F-FDG uptake in ileum at 300 mg/kg, po incorporated into chow diet administered daily for 2 weeks and measured after 14 days by ex vivo PET imaging analysis relative to control; type: functional
[16] = system: Mus musculus; assay: Antitumor activity in C57BL/6J mouse model of spontaneous GI-tract tumor Apc-min assessed as reduction in total ileum polyp area at 300 mg/kg, po administered as suspension for 10 to 12 weeks; type: functional; details: time 10-12 weeks, read-out: TGI
[17] = system: Mus musculus; assay: Antitumor activity in C57BL/6J mouse model of spontaneous GI-tract tumor Apc-min assessed as mouse survival at 100 mg/kg, po administered daily as suspension and measured at day 82 by Kaplan-Meier method; type: functional
[18] = species on record: Homo sapiens; assay: Selectivity ratio of IC50 for COX1 in human whole blood assessed as reduction in calcium ionophore-stimulated TXB2 production to IC50 for COX2 in human whole blood assessed as reduction in LPS stimulated PGE2 production; type: tissue-based
[19] = target: T3, Prostaglandin G/H synthase 2 (Mus musculus, UniProt Q05769); assay: In vivo inhibition of COX2 in po dosed C57BL/6J mouse model of spontaneous GI-tract tumor Apc-min assessed as chemopreventive effect by measuring reduction in polyp area and relevant plasma exposures; type: functional, organism-based
T3 sequence (Q05769 whole entry): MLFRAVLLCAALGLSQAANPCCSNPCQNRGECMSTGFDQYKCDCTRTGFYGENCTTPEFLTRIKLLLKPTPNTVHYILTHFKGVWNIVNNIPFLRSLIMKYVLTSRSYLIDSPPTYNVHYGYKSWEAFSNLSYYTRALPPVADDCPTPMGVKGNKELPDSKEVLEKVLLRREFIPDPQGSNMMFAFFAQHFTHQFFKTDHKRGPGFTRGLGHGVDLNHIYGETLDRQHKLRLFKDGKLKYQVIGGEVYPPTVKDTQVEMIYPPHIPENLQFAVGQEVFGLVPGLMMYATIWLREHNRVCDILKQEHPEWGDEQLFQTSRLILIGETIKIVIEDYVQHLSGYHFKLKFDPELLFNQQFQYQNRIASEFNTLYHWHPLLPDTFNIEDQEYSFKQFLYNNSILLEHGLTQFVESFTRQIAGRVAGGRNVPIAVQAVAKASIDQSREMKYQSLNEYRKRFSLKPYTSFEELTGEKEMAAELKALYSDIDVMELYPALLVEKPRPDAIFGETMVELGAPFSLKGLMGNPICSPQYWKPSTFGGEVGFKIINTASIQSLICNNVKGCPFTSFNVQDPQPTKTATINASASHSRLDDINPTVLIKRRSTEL

[20] = target: T3, Prostaglandin G/H synthase 2; assay: In vivo inhibition of COX2 in po dosed C57BL/6J mouse model of spontaneous GI-tract tumor Apc-min assessed as chemopreventive effect by measuring reduction in polyp area and relevant ileum exposures; type: functional, organism-based
[21] = system: Mus musculus; assay: Antitumor activity in C57BL/6J mouse model of spontaneous GI-tract tumor Apc-min assessed as reduction in total ileum polyp area at 30 to 300 mg/kg, po administered as suspension for 10 weeks; type: functional, organism-based; details: dose 30-300 mg/kg
[22] = system: Mus musculus; assay: Antitumor activity in C57BL/6J mouse model of spontaneous GI-tract tumor Apc-min assessed as reduction in total ileum polyp number at 30 to 300 mg/kg, po administered as suspension for 10 weeks; type: functional, organism-based; details: dose 30-300 mg/kg
[23] = system: Mus musculus; assay: Antitumor activity in C57BL/6J mouse model of spontaneous GI-tract tumor Apc-min assessed as change in ileum polyp size at 30 to 300 mg/kg, po administered as suspension for 10 weeks; type: functional; details: dose 30-300 mg/kg
[24] = target: T4, Prostaglandin G/H synthase 2 (Homo sapiens) (UniProt P35354)
T4 sequence (whole entry): T1 sequence (P35354 whole entry)
Description: Protein occupancy at human recombinant COX-2 assessed as dissociation half life

[25] = in vivo; details: C57BL/6J, mouse, colon / portal vein plasma, po, 10 mg/kg
Description: Ratio of drug concentration in C57BL/6J mouse colon to portal vein plasma at 10 mg/kg, po measured after 4 hr by liquid chromatographic triple-quadrupole mass spectrometric method

[26] = Half life in human liver microsomes; type: ADME, Microsome
[27] = Half life in mouse liver microsomes; type: ADME, Microsome
[28] = Half life in human hepatocytes; type: ADME, cell-based, Hepatocyte
[29] = Half life in mouse hepatocytes; type: ADME, cell-based, Hepatocyte
[30] = Volume of distribution at steady state in C57BL/6J mouse at 2 mg/kg, iv measured after 0.08 to 24 hrs; type: ADME, organism-based; details: in vivo, 2 mg/kg, time 0.08-24 hrs
[31] = Half life in C57BL/6J mouse at 2 mg/kg, iv measured after 0.08 to 24 hrs; type: ADME, organism-based; details: in vivo, 2 mg/kg, time 0.08-24 hrs
[32] = Tmax in C57BL/6J mouse at 10 mg/kg, po administered as cassette dose measured at 4 hrs by liquid chromatographic triple-quadrupole mass spectrometric method; type: ADME, organism-based; details: in vivo
[33] = Drug metabolism in human hepatocytes assessed as metabolic turnover at 10 uM incubated up to 2 hrs by LC/MS-MS analysis; type: ADME, cell-based, Hepatocyte; details: read-out: Drug metabolism
[34] = Drug metabolism in mouse hepatocytes assessed as metabolic turnover at 10 uM incubated up to 2 hrs by LC/MS-MS analysis; type: ADME, cell-based, Hepatocyte
[35] = system: HEK293; assay: Selectivity ratio of IC50 for COX1 (unknown origin) expressed in HEK293 TRex cells assessed as reduction in PGE2 production to IC50 for COX2 (unknown origin) expressed in HEK293 TRex cells assessed as reduction in PGE2 production; type: cell-based; details: Homo sapiens
[36] = Drug concentration in C57BL/6J mouse colon at 10 mg/kg, po administered as cassette dose measured at 2 hrs by liquid chromatographic triple-quadrupole mass spectrometric method; type: ADME, organism-based; details: read-out: Ct
[37] = Oral bioavailability in C57BL/6J mouse at 10 mg/kg measured up to 24 hrs by LC-MS analysis; type: ADME, organism-based; details: in vivo
[38] = Oral bioavailability in Sprague Dawley rat at 10 mg/kg measured up to 24 hrs by LC-MS analysis; type: ADME, organism-based; details: in vivo
[39] = Oral bioavailability in Cynomolgus monkey at 10 mg/kg measured up to 24 hrs by LC-MS analysis; type: ADME, organism-based, Macaca fascicularis; details: in vivo
[40] = Oral bioavailability in dog at 10 mg/kg measured up to 24 hrs by LC-MS analysis; type: ADME, organism-based, Canis lupus familiaris; details: in vivo

Structure (SMILES)	IC50 [1] [nM]	IC50 [2] [nM]	IC50 [3] [nM]	IC50 [4] [nM]	concentration at 4 h [5] [ng/g]	concentration at 4 h [6] [ng/mL]	Ratio [7]	Ki [8] [nM]	IC50 [9] [nM]	IC50 [10] [nM]	fraction unbound [11]	fraction unbound [12]	solubility thermodynamic [13] [µM]	concentration at 4 h [14] [ng/mL]	Activity [15] [%]	inhibition in vivo at 300 mg/kg [16] [%]	Survival [17] [days]	Ratio IC50 [18]	T1/2 [24] [min]	Kp at 4 h [25]	other results
CC(C)(O)COc1nc(OCCC(F)(F)F)c(CO)cc1-c1ccc(S(C)(=O)=O)cc1	130	> 50000	500	130	15500	3.4	5264	32	877	181000	0.01	0.224	44.4 (≈ 20.6 µg/mL)	179	48.6	48.7	74	> 200	1320	101	IC50 [19]: 1.3 nM; IC50 [20]: 742 nM; Activity [21]: Active; Activity [22]: Active; Activity [23]: >2 mm
CCCCOc1nc(OCC(C)(C)O)c(-c2ccc(S(C)(=O)=O)cc2)cc1CO	47	> 50000	226	14100	4350	3	–	12	346	> 180000	0.009	0.025	66.5 (≈ 28.2 µg/mL)	24.8	48.9	35.1	–	> 200	1080	29.7	half-life [26]: 27.8 min; half-life [27]: 2.7 min; half-life [28]: 2.4 min; t1/2 [29]: 1.9 min; Vdss [30]: 4.92 L/kg; t1/2 [31]: 13.8 min; Kp at 4 h ([7]; C57BL/6J, colon / plasma): 1620; Tmax [32]: 15 min; metabolised at 2 h, 10 µM [33]: 100%; Drug metabolism [34]: 79.6%; Ratio IC50 [35]: 300; concentration at 2 h [36]: 6510 ng/g; bioavailability [37]: 4.25%; bioavailability [38]: 1.5%; bioavailability [39]: 4.87%; bioavailability [40]: 74%
CC(C)(O)COc1nc(OCCCC(F)(F)F)c(CO)cc1-c1ccc(S(C)(=O)=O)cc1	78	> 50000	360	21800	16000	3.8	4473	12	345	> 180000	0.011	0.204	111 (≈ 52.8 µg/mL)	230	–	39.8	62.5	–	1620	77	Ratio [18]: > 200; IC50 [19]: 1.9 nM; IC50 [20]: 160 nM; Activity [21]: Active; Activity [22]: Active
